Test results as given in patent US4236012A, “5-Phenethyl-2-oxazolidone derivatives and a process for producing the same” (Nippon Chemiphar Company, Limited, priority 1978, dated 1980).

Assays:
Assay type in all cases: in vivo, dd Male mice
mice [1] = experiment: Analgetic Effect on Acetic Acid-Induced Writhing Method; settings: Mus musculus, oral, 30 minutes before intraperitoneal 0.6% acetic acid, writhing within 20 minutes, Litchfield Wilcoxon method
Procedure: (2) Analgetic Effect on Acetic Acid-Induced Writhing Method:
dd Male mice weighing 18 to 22 g, each group consisting of ten animals were given an intraperitoneal injection of 0.6% acetic acid in a dosage of 0.1 ml/10 g per body weight. The number of writhing syndromes occurring within 20 minutes after the injection was observed. Thereafter, the mice were orally given the test compounds suspended in a 0.2% carboxymethylcellulose solution 30 minutes before the injection of acetic acid. The inhibitory percentage was estimated in comparison with a control in which only a 0.2% carboxymethylcellulose solution was given, and the ED50 values were calculated by the Litchfield Wilcoxon method.

mice [2] = experiment: Muscular Relaxing Effect: Rotarod Method; settings: Mus musculus, oral, falling within 3 minutes from rod of 3 cm diameter at 10 rpm, maximum response over 15-180 minutes, Litchfield Wilcoxon method, read-out: ED50 Values, R.R (Rotarod Method)
Procedure: (§1) (1) Muscular Relaxing Effect:
(§2) dd Male mice weighing 18 to 22 g, one group consisting of ten animals were orally given the compounds (I) to (III) each suspended in a 0.2% carboxymethylcellulose solution in a dosage of 0.25 ml/10 g per body weight. Mephenesin and 5-(o-chlorobenzyl)-2-oxazoline were used as active placebos. The experiment was carried out according to the methods (a) to (c) as described below, and the ED50 values were calculated by the Litchfield Wilcoxon method, based on the maximum response in each dosage which was measured at intervals of 15, 30, 45, 60, 90, 120, 150 and 180 minutes after the administration of each of the test compounds.
Mice were placed on Rotar Load (made by Natsume Seisakusho Co., Ltd.) having a diameter of 3 cm and rotating at a speed of 10 rpm, and their falling (occurring within 3 minutes) was observed.

mice [3] = experiment: Muscular Relaxing Effect: Traction Test; settings: Mus musculus, oral, hind legs on wire within 5 seconds, maximum response over 15-180 minutes, Litchfield Wilcoxon method, read-out: ED50 Values, T.T (Traction Test)
Procedure: as §1, §2

mice [4] = experiment: Muscular Relaxing Effect: Inclined Plane Test; settings: Mus musculus, oral, veneer inclined at 30 degrees and wire network at 60 degrees, maximum response over 15-180 minutes, Litchfield Wilcoxon method, read-out: ED50 Values, I.P (Inclined Plane Test)
Procedure: as §1, §2
Mice were placed on veneer inclined at an angle of 30 degrees and on a wire network inclined at an angle of 60 degrees of which one mesh was 5 mm square, and the mice sliding down were considered as positive in comparison with their normal behavior.

| SMILES | ED50 (mice [1]) [mg/kg] | ED50 (mice [2]) [mg/kg] | ED50 (mice [3]) [mg/kg] | ED50 (mice [4]) [mg/kg] |
| --- | --- | --- | --- | --- |
| Cc1c(N(C)C)c(=O)n(-c2ccccc2)n1C [Aminopyrine] | 64 |  |  |  |
| O=C1NCC(Cc2ccccc2Cl)O1 (centres unmarked) [Compound A, 5-(o-Chlorobenzyl)-2-oxazolidone, reference compound] | 40 | 210 | 390 | 330 |
| O=C1NCC(CCc2ccccc2)O1 (centres unmarked) [Compound I, 5-Phenethyl-2-oxazolidone] |  | 196 | 217 | 261 |
| O=C1NCC(CCc2ccccc2F)O1 (centres unmarked) [Compound II, 5-(o-Fluorophenethyl)-2-oxazolidone] |  | 194 | 230 | 297 |
| O=C1NCC(CCc2ccccc2Cl)O1 (centres unmarked) [Compound III, 5-(o-Chlorophenethyl)-2-oxazolidone] | 36 | 182 | 225 | 268 |
| Cc1ccccc1OCC(O)CO (centres unmarked) [Mephenesin, reference compound] |  |  | 460 | 470 |
